Common to all, as to type: cell-based, human
Assay [1] deals with PAH-SMCs. The experiment in a line: Hyperproliferative phenotype of PAH smooth muscle cells. Conditions: vs DMSO. The source says: (§1) PAH-FBs wurden mit verschiedenen Konzentrationen der Substanz SGC-CBP30 oder dem Lösungsmittel DMSO inkubiert, um die Zellproliferation und die Induktion von Apoptose 24 Stunden danach zu untersuchen. Die Wirkung der selektiven EP300/CREBBP-Inhibition auf die Zellproliferation wurde durch den Einbau von BrdU (Bromodeoxyuridin, 5-Bromo-2'-Deoxyuridin, BUdR, BrdUrd, Broxuridine) bewertet. Die Wirkung der Substanz SGC-CBP30 oder des Lösungsmittels DMSO auf die Induktion von Apoptose wurde durch Cell Death Detection ELISAPLUS bewertet. Dabei zeigten sich deutliche Unterschiede zwischen der Substanz SGC-CBP30 und dem Lösungsmittel DMSO.
(§2) Das therapeutische Potenzial der EP300/CREBBP-Hemmung durch die Substanz SGC-CBP30 wurde untersucht. Dazu wurde die Wirksamkeit auf PAH-FBs und PAH-SMCs geprüft, die aus den Lungenarterien von menschlichen PAH-Patienten und aus den Lungenarterien von Ratten mit MCT-PAH (Rattenmodell mit Monocrotalin) isoliert wurden. […] Die Wirkung der EP300-Hemmung auf das vaskuläre Remodelling wurde durch Quantifizierung der prozentualen medialen Wanddicke in den mit der Substanz SGC-CBP30 inkubierten PCLS im Vergleich zu den mit DMSO inkubierten Kontrollen bewertet. Dabei zeigten sich deutliche Unterschiede zwischen der Substanz SGC-CBP30 und DMSO.

For another assay, the system named is PAH-FBs. The experiment in a line: Apoptosis by Cell Death Detection ELISAPLUS in PAH fibroblasts. The following applies: PAH-FBs isolated ex vivo; various concentrations; vs DMSO; 24 h. The source says: Diese Untersuchungen führten zu der Erkenntnis, dass die epigenetische Regulation der entwicklungsbedingten TF-Expression in der Lunge durch Modulation der EP300/CREBBP-Funktion rückgängig gemacht werden kann. Die Wirkung des niedermolekularen Inhibitors (Substanz, Wirkstoff) SGC-CBP30 auf die Proliferation von Gefäßzellen, die Apoptose sowie die Gen- und Proteinexpression wurde mit Hilfe geeigneter Assays nach der Transfektion untersucht. Nachdem Zellen zur Subkonfluenz gewachsen sind, wurde ihnen mit steigenden Konzentrationen der selektive EP300-Inhibitor SGC-CBP30 (Sigma, Katalognummer: SML1133) hinzugefügt. Die aus PAH-Patienten isolierten FBs wurden also mit dem isoformselektiven HAT-Inhibitor SGC-CBP30 behandelt. Gleichzeitig wurde den Zellen das Lösungsmittel DMSO (Sigma) mit entsprechenden Konzentrationen hinzugefügt. […]
• A: PAH-FBs wurden mit siRNAs (siP300) behandelt, die auf EP300 abzielen (n=3), um die genspezifische funktionelle Rolle von EP300 bei der Hyperproliferation ex vivo 48 Stunden nach der Transfektion zu untersuchen. […] Skalenbalken: 50 µm. • E: Die Wirkung der P300-Inhibition (200 µM) auf den Gefäßumbau wurde durch Quantifizierung der prozentualen medialen Wanddicke in den mit dem EP300/CREBBP-Inhibitor SGC-CBP30 inkubierten PCLS im Vergleich zu den mit DMSO inkubierten Kontrollen bewertet. […]

Assay [2] has as its system PAH-SMCs. The experiment in a line: Apoptosis in PAH smooth muscle cells. Conditions: vs DMSO.
Text: as §1, §2

Consider `COc1ccc(CCc2nc3cc(-c4c(C)noc4C)ccc3n2C[C@H](C)N2CCOCC2)cc1Cl` [SGC-CBP30, 2-[2-(3-Chloro-4-methoxyphenyl)ethyl]-5-(3,5-dimethyl-1,2-oxazol-4-yl)-1-[(S)-2-(morpholin-4-yl)propyl]-1H-benzimidazole], for which the “hyperproliferativer Phänotyp” value in the assay with PAH-SMCs [1] is listed as “schwächte den hyperproliferativen Phänotyp und die Apoptoserate von PAH-FBs und PAH-SMCs deutlich ab”. Moreover, the Apoptoserate entry with PAH-FBs and with PAH-SMCs [2] was “schwächte den hyperproliferativen Phänotyp und die Apoptoserate von PAH-FBs und PAH-SMCs deutlich ab” throughout.

For the origin of these results see EP4257135A1, “BENZIMIDAZOLE DERIVATIVES FOR PULMONARY ARTERIAL HYPERTENSION” (Justus-Liebig-Universität Gießen, priority 2022, dated 2023).
